Key:
Assay in all cases: relative viability (nuclei count vs DMSO), 5 days (fraction); higher = more cells survive
Tanzisertib + Phenformin = compound: O[C@H]1CC[C@H](Nc2ncc3nc(Nc4c(F)cc(F)cc4F)n([C@H]4CCOC4)c3n2)CC1 [Tanzisertib] + N=C(N)NC(=N)NCCc1ccccc1 [Phenformin] (partner 250 µM)
Procedure, shortened: (§1)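 Lung cancer cell lines in 1536-well plates were dosed by pin tool the day after seeding, either with one drug alone or with a fixed anchor-drug dose plus five library-drug doses (not always all listed) in √10 steps. After 5 days, cells were fixed and their nuclei stained in one step (final 0.05% Triton X-100, 1% formaldehyde, 1 ug/ml Hoechst), then counted on 4× images. Relative viability is the nuclei count in treated wells divided by that in vehicle wells. Values are medians of duplicate plates.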

[1] = compound: C[C@@H](N)c1ccc(C(=O)Nc2ccnc3[nH]ccc23)cc1 + CS(=O)(=O)CCNCc1ccc(-c2ccc3ncnc(Nc4ccc(OCc5cccc(F)c5)c(Cl)c4)c3c2)o1 [Lapatinib] (partner 2 µM)
Procedure, shortened: as §1

[2] = compound: C1CNCCC1C2=CC(=NN2)C3=CC=NC=C3 + N=C(N)NC(=N)NCCc1ccccc1 [Phenformin] (partner 250 µM)
Procedure, shortened: as §1

Tanzisertib + Olaparib = compound: O[C@H]1CC[C@H](Nc2ncc3nc(Nc4c(F)cc(F)cc4F)n([C@H]4CCOC4)c3n2)CC1 [Tanzisertib] + O=C(c1cc(Cc2n[nH]c(=O)c3ccccc23)ccc1F)N1CCN(C(=O)C2CC2)CC1 [Olaparib] (partner 8 µM)
Procedure, shortened: as §1

| Cell Line | relative viability (Tanzisertib + Phenformin; first compound 0.08 µM) | relative viability (Tanzisertib + Phenformin; first compound 0.253 µM) | relative viability (Tanzisertib + Phenformin; first compound 0.8 µM) | relative viability (Tanzisertib + Phenformin; first compound 2.53 µM) | relative viability (Tanzisertib + Phenformin; first compound 8 µM) | relative viability ([1]; first compound 0.04 µM) | relative viability ([1]; first compound 0.1265 µM) | relative viability ([1]; first compound 0.4 µM) | relative viability ([1]; first compound 1.265 µM) | relative viability ([1]; first compound 4 µM) | relative viability ([2]; first compound 0.08 µM) | relative viability ([2]; first compound 0.8 µM) | relative viability ([2]; first compound 2.53 µM) | relative viability ([2]; first compound 8 µM) | relative viability (Tanzisertib + Olaparib; first compound 0.08 µM) | relative viability (Tanzisertib + Olaparib; first compound 0.253 µM) | relative viability (Tanzisertib + Olaparib; first compound 0.8 µM) | relative viability (Tanzisertib + Olaparib; first compound 2.53 µM) | relative viability (Tanzisertib + Olaparib; first compound 8 µM) |
| --- | --- | --- | --- | --- | --- | --- | --- | --- | --- | --- | --- | --- | --- | --- | --- | --- | --- | --- | --- |
| 201T | 0.454 | 0.501 | 0.477 | 0.459 | 0.386 | 1 | 0.989 | 1.09 | 0.971 | 1.24 | 0.434 | 0.464 | 0.461 | 0.415 | 0.854 | 0.902 | 0.855 | 0.848 | 0.864 |
| A549 | 0.236 | 0.153 | 0.183 | 0.309 | 0.168 | 1.1 | 0.895 | 1.06 | 0.924 | 0.53 | 0.107 | 0.153 | 0.199 | 0.156 | 0.297 | 0.397 | 0.344 | 0.35 | 0.0802 |
| A-427 | 0.394 | 0.411 | 0.413 | 0.326 | 0.22 | 0.968 | 1.07 | 1 | – | 0.885 | 0.375 | 0.38 | 0.323 | 0.299 | 0.783 | 0.66 | 0.811 | 0.877 | 0.782 |
| ABC-1 | 0.242 | 0.251 | 0.226 | 0.211 | 0.218 | 1.16 | 1.02 | 1.2 | – | 1.36 | 0.244 | 0.195 | 0.259 | 0.257 | 0.838 | 0.757 | 0.634 | 0.701 | 0.792 |
| BEN | 0.254 | 0.235 | 0.275 | 0.266 | 0.255 | 0.706 | 0.675 | 0.99 | 0.781 | 0.438 | 0.312 | 0.172 | 0.243 | 0.271 | 1.05 | 0.968 | 1.05 | 1.12 | 0.997 |
| CAL-12T | 0.517 | 0.566 | 0.625 | 0.628 | 0.556 | 0.801 | 0.811 | 0.886 | – | 0.875 | 0.598 | 0.663 | 0.654 | 0.616 | 0.731 | 0.767 | 0.567 | 0.641 | 0.844 |
| COR-L23 | 0.479 | 0.489 | 0.432 | 0.483 | 0.475 | 0.948 | 1.01 | 0.897 | 0.895 | 0.576 | 0.429 | 0.465 | 0.469 | 0.431 | 0.339 | 0.353 | 0.347 | 0.417 | 0.353 |
| Calu-6 | – | – | – | – | – | 1.09 | 1.08 | 1.1 | 0.902 | 0.832 | – | – | – | – | 0.583 | 0.566 | 0.563 | 0.597 | 0.509 |

Source: the supplement of paper PMC10307832
